According to patent US20230167073A1 (Teijin Pharma Limited, priority 2020, published 2023):

target: T1, Human TRPC6 (Homo sapiens, UniProt Q9Y210); assay: Evaluation of TRPC6 channel inhibitory activity (1), FLIPR Calcium 5 Assay Kit, OAG stimulation (Compound Nos. 1-1293); type: cell-based; settings: Human TRPC6 stably-expressing cells, OAG 30 μM, FLIPR Calcium 5 Assay Kit; read-out: Inhibitory activity (pIC50 class) (converted)
T1 construct: expressed in transfected cells
T1 sequence (Q9Y210 1-931): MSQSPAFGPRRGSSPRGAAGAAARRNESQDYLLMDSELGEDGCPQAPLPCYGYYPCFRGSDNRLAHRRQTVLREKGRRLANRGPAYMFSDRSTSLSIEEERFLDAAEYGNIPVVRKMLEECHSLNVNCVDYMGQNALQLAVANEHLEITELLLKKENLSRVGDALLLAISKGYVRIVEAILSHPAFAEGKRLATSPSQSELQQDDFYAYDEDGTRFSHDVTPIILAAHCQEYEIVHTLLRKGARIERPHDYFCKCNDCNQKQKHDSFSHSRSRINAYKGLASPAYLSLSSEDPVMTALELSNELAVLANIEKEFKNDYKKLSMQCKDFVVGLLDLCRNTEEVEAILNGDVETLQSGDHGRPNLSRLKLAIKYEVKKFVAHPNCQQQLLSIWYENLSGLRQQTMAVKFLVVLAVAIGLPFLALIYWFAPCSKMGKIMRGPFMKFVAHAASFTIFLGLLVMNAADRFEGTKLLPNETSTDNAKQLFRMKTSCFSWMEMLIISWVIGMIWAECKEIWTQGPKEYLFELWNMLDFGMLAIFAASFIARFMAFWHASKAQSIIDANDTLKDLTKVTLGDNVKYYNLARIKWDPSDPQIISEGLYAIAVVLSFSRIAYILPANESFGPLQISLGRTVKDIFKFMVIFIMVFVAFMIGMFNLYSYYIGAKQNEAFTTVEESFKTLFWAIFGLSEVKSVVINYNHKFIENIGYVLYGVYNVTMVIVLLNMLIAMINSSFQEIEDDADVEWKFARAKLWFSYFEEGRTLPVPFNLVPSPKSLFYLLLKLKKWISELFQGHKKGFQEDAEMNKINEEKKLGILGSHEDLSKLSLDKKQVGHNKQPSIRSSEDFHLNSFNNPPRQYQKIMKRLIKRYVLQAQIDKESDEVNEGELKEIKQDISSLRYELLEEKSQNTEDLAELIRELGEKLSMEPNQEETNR
Summary of the method: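 Cells stably expressing human TRPC6, plated 24 h before, were loaded 30 min with Calcium 5 dye plus probenecid in HEPES-HBSS. Compound was added 20 min before OAG (30 μM final) and fluorescence tracked on FLIPR. Inhibition normalised to no-compound and no-compound/no-OAG wells; pIC50 from four-parameter fit, reported as +/++/+++ categories.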

`Cc1cc(Oc2cc(C#N)ccc2-c2ccc([C@@H](O)CN)cn2)cc(N2CCOCC2)n1` [compound 517, 4-[5-[(1R)-2-amino-1-hydroxyethyl]pyridin-2-yl]-3-(2-methyl-6-morpholin-4-ylpyridin-4-yl)oxybenzonitrile] and `Cc1cc(Oc2cc(C#N)ccc2-c2ccc([C@H](O)CN)cn2)cc(N2CCCCC2)n1` [compound 500, 4-[5-[(1S)-2-amino-1-hydroxyethyl]pyridin-2-yl]-3-(2-methyl-6-piperidin-1-ylpyridin-4-yl)oxybenzonitrile] cannot be ordered by IC50: < 10 nM for the first, < 10 nM for the second.

`CC(C)Cc1cn(Cc2cc(C#N)ccc2-c2ncc(CN)cn2)nn1` [compound 1188, 4-[5-(aminomethyl)pyrimidin-2-yl]-3-[[4-(2-methylpropyl)triazol-1-yl]methyl]benzonitrile] and `Cc1nc(C2CCOCC2)cn1Cc1cc(C#N)ccc1-c1ncc(CN)cn1` [compound 1164, 4-[5-(aminomethyl)pyrimidin-2-yl]-3-[[2-methyl-4-(oxan-4-yl)imidazol-1-yl]methyl]benzonitrile] fall in the same range of IC50: 10 to 1000 nM for the first, 10 to 1000 nM for the second.

`CC(=O)Nc1ccccc1-c1cc(Oc2cc(C#N)ccc2-c2ccc(CCN)cc2)cnn1` [Compound 119, N-[2-[5-[2-[4-(2-aminoethyl)phenyl]-5-cyanophenoxy]pyridazin-3-yl]phenyl]acetamide] and `N#Cc1ccc(-c2ccc(C3(CN)CC3)cc2)c(Oc2cnnc(-c3ccccc3)c2)c1` [Compound 83, 4-[4-[1-(aminomethyl)cyclopropyl]phenyl]-3-(6-phenylpyridazin-4-yl)oxybenzonitrile] cannot be ordered by IC50: > 1000 nM for the first, > 1000 nM for the second.

First: NCCc1cnc(-c2ccc(Cl)cc2Oc2cnn(-c3ccccn3)c2)nc1 [compound 1024, 2-[2-[4-chloro-2-(1-pyridin-2-ylpyrazol-4-yl)oxyphenyl]pyrimidin-5-yl]ethanamine]
Second: Cc1nc(Oc2cc(C#N)ccc2-c2ncc(CCN)cn2)cc(-c2ccccc2)n1 [Compound 275, 4-[5-(2-aminoethyl)pyrimidin-2-yl]-3-(2-methyl-6-phenylpyrimidin-4-yl)oxybenzonitrile]
The IC50 of the first is higher: 10 to 1000 nM for the first, < 10 nM for the second.

First: N#Cc1ccc(-c2ccc(CCN)cc2)c(Sc2cnnc(N3CCOCC3)c2)c1 [compound 1239, 4-[4-(2-aminoethyl)phenyl]-3-(6-morpholin-4-ylpyridazin-4-yl)sulfanylbenzonitrile]
Second: Cc1nc(Oc2cc(C#N)ccc2-c2ccc(CCN)cc2)cc(N2CCCCCC2)n1 [Compound 27, 4-[4-(2-aminoethyl)phenyl]-3-[6-(azepan-1-yl)-2-methylpyrimidin-4-yl]oxybenzonitrile]
The IC50 of the first is lower: < 10 nM for the first, 10 to 1000 nM for the second.

Compared with `COC(C)(C)CN(C)c1cc(Oc2cc(C#N)ccc2-c2ncc(CN)cn2)n(C)n1` [compound 867, 4-[5-(aminomethyl)pyrimidin-2-yl]-3-[5-[(2-methoxy-2-methylpropyl)-methylamino]-2-methylpyrazol-3-yl]oxybenzonitrile], `CCN(C)c1cc(Oc2cc(C#N)ccc2-c2ncc(CCN)cn2)n(C)n1` [compound 774, 4-[5-(2-aminoethyl)pyrimidin-2-yl]-3-[5-[ethyl(methyl)amino]-2-methylpyrazol-3-yl]oxybenzonitrile] is lower in IC50: > 1000 nM for the first, < 10 nM for the second.

`Cn1nc(-c2ccccn2)cc1Oc1cc(C#N)ccc1-c1nc(Cl)c2c(n1)CCNC2` [compound 761] and `Cn1nc(-c2ccccn2)cc1Oc1cc(C#N)ccc1-c1ncc(CNC23CC4CC(CC(C4)C2)C3)cn1` [compound 666, 4-[5-[(1-adamantylamino)methyl]pyrimidin-2-yl]-3-(2-methyl-5-pyridin-2-ylpyrazol-3-yl)oxybenzonitrile] cannot be ordered by IC50: > 1000 nM for the first, > 1000 nM for the second.

Going from `Cc1nc(C2CCOCC2)cn1Cc1cc(C#N)ccc1-c1ccc([C@H](O)CN)cn1` [compound 1165] to `Cn1nc(C2CCOCC2)cc1Oc1cc(C#N)ccc1-c1ccc(CN)cn1` [compound 440, 4-[5-(aminomethyl)pyridin-2-yl]-3-[2-methyl-5-(oxan-4-yl)pyrazol-3-yl]oxybenzonitrile], the IC50 falls from > 1000 nM to < 10 nM.

`Cc1nc(Oc2cc(C#N)ccc2-c2ncc(CCN)cn2)cc(OC2CC2)n1` [compound 892, 4-[5-(2-aminoethyl)pyrimidin-2-yl]-3-(6-cyclopropyloxy-2-methylpyrimidin-4-yl)oxybenzonitrile] and `Cc1nc(Oc2cc(C#N)ccc2-c2ncc(CN)cn2)cc(N(C)CC2CC2)n1` [compound 796, 4-[5-(aminomethyl)pyrimidin-2-yl]-3-[6-[cyclopropylmethyl(methyl)amino]-2-methylpyrimidin-4-yl]oxybenzonitrile] fall in the same range of IC50: 10 to 1000 nM for the first, 10 to 1000 nM for the second.

`Cn1nc(C(F)(F)F)cc1Oc1cc(C#N)ccc1-c1ncc([C@H](F)CN)cn1` [compound 903, 4-[5-[(1S)-2-amino-1-fluoroethyl]pyrimidin-2-yl]-3-[2-methyl-5-(trifluoromethyl)pyrazol-3-yl]oxybenzonitrile] and `Cn1nc(-c2cccc(F)c2)cc1Oc1cc(C#N)ccc1-c1ncc(CCN)cn1` [compound 402, 4-[5-(2-aminoethyl)pyrimidin-2-yl]-3-[5-(3-fluorophenyl)-2-methylpyrazol-3-yl]oxybenzonitrile] cannot be ordered by IC50: < 10 nM for the first, < 10 nM for the second.

First: COC(=O)C(N)c1ccc(-c2ccc(C#N)cc2Oc2cc(C)nc(N3CCOCC3)c2)nc1 (centres unmarked) [compound 409, methyl 2-amino-2-[6-[4-cyano-2-(2-methyl-6-morpholin-4-ylpyridin-4-yl)oxyphenyl]pyridin-3-yl]acetate]
Second: Cc1cc(Oc2cc(C#N)ccc2-c2ncc(CCN)cn2)cc(N2CCO[C@@H](C(F)F)C2)n1 [compound 444, 4-[5-(2-aminoethyl)pyrimidin-2-yl]-3-[2-[(2R)-2-(difluoromethyl)morpholin-4-yl]-6-methylpyridin-4-yl]oxybenzonitrile]
The IC50 of the first is higher: 10 to 1000 nM for the first, < 10 nM for the second.

First: N#Cc1ccc(-c2ncc(CCN)cn2)c(Oc2cnnc(N3CCCCC3)c2)c1 [compound 619, 4-[5-(2-aminoethyl)pyrimidin-2-yl]-3-(6-piperidin-1-ylpyridazin-4-yl)oxybenzonitrile]
Second: Cn1nc(N2CCCC2)cc1Oc1cc(C#N)ccc1-c1ccc(CC2(N)COC2)cn1 [compound 741, 4-[5-[(3-aminooxetan-3-yl)methyl]pyridin-2-yl]-3-(2-methyl-5-pyrrolidin-1-ylpyrazol-3-yl)oxybenzonitrile]
The IC50 of the first is lower: < 10 nM for the first, 10 to 1000 nM for the second.

First: Cc1nc(Oc2cc(C#N)ccc2-n2cc([C@@H](O)CN)cn2)cc(-c2cccc(C(F)(F)F)c2)n1 [compound 353, 4-[4-[(1R)-2-amino-1-hydroxyethyl]pyrazol-1-yl]-3-[2-methyl-6-[3-(trifluoromethyl)phenyl]pyrimidin-4-yl]oxybenzonitrile]
Second: Cc1cccc(-c2cc(Oc3cc(C#N)ccc3-n3cc([C@@H](O)CN)cn3)nc(C)n2)c1 [Compound 205, 4-[4-[(1R)-2-amino-1-hydroxyethyl]pyrazol-1-yl]-3-[2-methyl-6-(3-methylphenyl)pyrimidin-4-yl]oxybenzonitrile]
The IC50 of the first is higher: 10 to 1000 nM for the first, < 10 nM for the second.

Compared with `CC(C)(C)n1nc(C2CC2)cc1Oc1cc(C#N)ccc1-c1ccc(C(O)CN)cn1` (centres unmarked) [compound 368, 4-[5-(2-amino-1-hydroxyethyl)pyridin-2-yl]-3-(2-tert-butyl-5-cyclopropylpyrazol-3-yl)oxybenzonitrile], `Cn1nc(-c2ccccc2)cc1Oc1cc(C#N)ccc1-c1ccc([C@H](O)CN)cn1` [compound 366, 4-[5-[(1S)-2-amino-1-hydroxyethyl]pyridin-2-yl]-3-(2-methyl-5-phenylpyrazol-3-yl)oxybenzonitrile] is lower in IC50: 10 to 1000 nM for the first, < 10 nM for the second.

Compared with `Cc1nc(Oc2cc(C#N)ccc2-n2cc([C@@H](O)CN)cn2)cc(OC2CCC2)n1` [Compound 269, 4-[4-[(1R)-2-amino-1-hydroxyethyl]pyrazol-1-yl]-3-(6-cyclobutyloxy-2-methylpyrimidin-4-yl)oxybenzonitrile], `Cc1c(C(=O)c2cc(C#N)ccc2-c2ncc(CN)cn2)cnn1CC1CC1` [compound 1036, 4-[5-(aminomethyl)pyrimidin-2-yl]-3-[1-(cyclopropylmethyl)-5-methylpyrazole-4-carbonyl]benzonitrile] is higher in IC50: 10 to 1000 nM for the first, > 1000 nM for the second.

`Cn1nc(-c2cccc(F)c2)cc1Oc1cc(C#N)ccc1-c1ccc(C(O)CN)cc1` (centres unmarked) [Compound 198, 4-[4-(2-amino-1-hydroxyethyl)phenyl]-3-[5-(3-fluorophenyl)-2-methylpyrazol-3-yl]oxybenzonitrile] and `Cn1nc(N2CCCC2)cc1Oc1cc(F)ccc1-c1ccc(CN)cn1` [compound 996, [6-[4-fluoro-2-(2-methyl-5-pyrrolidin-1-ylpyrazol-3-yl)oxyphenyl]pyridin-3-yl]methanamine] cannot be ordered by IC50: < 10 nM for the first, < 10 nM for the second.
